From patent publication US5147878A, “Aminoalkoxyphenyl derivatives, process of preparation and compositions containing the same” (Sanofi, priority 1986, dated 1992)
Where a name gives a salt, the structure may show the parent alone.

System: isolated rat aorta
Test: Calcium inhibitory properties: contractile response to potassium-induced depolarization on isolated rat aorta
Parameters: species or system isolated organ, male Wistar rats
Conditions: for activity at 0.1 µM / activity at 0.01 µM / activity at 1 µM: Rattus norvegicus, 1 h, read-out: % of the maximum contractional effect; for activity at 0.1 µM: 10^-7 M; for activity at 0.01 µM: 10^-8 M; for activity at 1 µM: 10^-6 M
Source text: It is well established that the depolarization of a smooth muscle membrane by potassium renders the latter permeable to extracellular calcium and induces muscle contraction. Consequently, the measurement of the inhibition of the contractile response to depolarization by potassium, or the measurement of a relaxation of the tonic contraction on potassium depolarization, can represent an evaluation of the power of a compound as an inhibitor of the membrane permeability to Ca^++ ions. The technique used was as follows: The aorta was removed from male Wistar rats weighing approximately 300 g, and cut into strips approximately 40 mm long and 3 mm wide. These fragments were placed in a 25-ml isolated organ trough containing a modified Krebs-bicarbonate solution (112 mM NaCl; 5 mM KCl; 25 mM NaHCO3; 1 mM KH2 PO4; 1.2 mM MgSO4; 2.5 mM CaCl2; 11.5 mM glucose, distilled water to 1000 ml) through which a stream of 5-7% carbon dioxide in oxygen was passed, and maintained at 37° C. The preparation was connected to a force microsensor and the contractile response recorded after amplification on a recorder. A tension of 2 g was applied to the preparation. This tension was maintained for 60 minutes in the modified Krebs-bicarbonate solution, and contractions were then induced by replacing the Krebs-bicarbonate solution by a potassium-Krebs solution (17 mM NaCl; 100 mM KCl; 25 mM NaHCO3; 1 mM KH2 PO4; 1.2 mM MgSO4; 2.5 mM CaCl2; 11.5 mM glucose; distilled water to 1000 ml). When the contractile response of the preparation had become reproducible, a given amount of a compound of the invention was introduced into the bath. Sixty minutes later, a new spasm was induced by potassium depolarization. The results obtained on the aorta used in the experiment were then expressed as a percentage of the maximum contractional effect before incubation with the test substance. By way of examples, the results which follow were obtained, the compounds of formula (1) being in the form of the base, hydrochloride or oxalate.

`CCCCN(CCCC)CCCOc1ccc([S+]([O-])c2c(C(C)C)cn3ccccc23)cc1` (racemic) [Ex. 54, 4-[3-(di-n-butylamino)propyl]oxyphenyl(2-isopropyl-1-indolizinyl)sulphoxide oxalate] gave an activity at 0.1 µM of 74.3% and an activity at 0.01 µM of 82.4%.
`CCc1cn2ccccc2c1S(=O)(=O)c1ccc(OCCCNC(C)(C)C)cc1` [Ex. 3, 2-ethyl-1-{4-[3-(tert-butylamino)propyloxy]benzenesulphonyl}indolizine hydrochloride] was tested, and the activity at 1 µM was 30.7%.
In the case of `CCN(CC)CCCOc1ccc(S(=O)(=O)c2c(C)cn3ccccc23)cc1` [Ex. 4, 2-Methyl-1-{4-[3-(diethylamino)propyloxy]benzenesulphonyl}indolizine oxalate], the activity at 1 µM is reported as 77.2%.
`CCCN(CCC)CCCOc1ccc(S(=O)(=O)c2c(C)cn3ccccc23)cc1` [Ex. 5, 2-Methyl-1-{4-[3-(di-n-propylamino)propyloxy]benzenesulphonyl}indolizine] gave an activity at 1 µM of 48.9%.
`CCCCN(CCCC)CCCOc1c(C)cc(S(=O)(=O)c2c(CC)cn3ccccc23)cc1C.Cl` [Ex. 10, 2-Ethyl-1-{4-[3-(di-n-butylamino)propyloxy]-3,5-dimethylbenzenesulphonyl}indolizine hydrochloride] showed an activity at 1 µM of 2.9%, an activity at 0.1 µM of 49% and an activity at 0.01 µM of 82.6%. For the same molecule, the Activity ratio (compound / Compound D) was 2.2.
Molecule `CCCCN(CCCC)CCCOc1ccc(S(=O)(=O)c2c(C(C)(C)C)cn3ccccc23)cc1` [Ex. 16, 2-tert-Butyl-1-{4-[3-(di-n-butylamino)propyloxy]-benzenesulphonyl}indolizine] has an activity at 0.1 µM of 35.8% and an activity at 0.01 µM of 78.7%.
In the case of `CCCCN(CCCC)CCOc1ccc(S(=O)(=O)c2c(CC)cn3ccccc23)cc1` [Ex. 22, 2-Ethyl-1-{4-[2-(di-n-butylamino)ethyloxy]benzenesulphonyl}indolizine hydrochloride], the activity at 0.1 µM is reported as 37% and the activity at 0.01 µM is reported as 90.2%.
With `CC(C)(C)NCCCOc1ccc(S(=O)(=O)c2c(-c3ccccc3)cn3ccccc23)cc1` [Ex. 24, 2-Phenyl-1-{4-[3-(tert-butylamino)propyloxy]benzenesulphonyl}indolizine hydrochloride] the activity at 1 µM was 62.1%.
Work on `Cc1cc(S(=O)(=O)c2c(-c3ccccc3)cn3ccccc23)ccc1OCCCNC(C)(C)C` [Ex. 25, 2-Phenyl-1-{4-[3-(tert-butylamino)propyloxy]-3-methylbenzenesulphonyl}indolizine hydrochloride] yielded an activity at 1 µM of 67.7%.
For `CC(C)c1cn2ccccc2c1S(=O)(=O)c1ccc(OCCCNCCc2ccccc2)cc1` [Ex. 31, 2-Isopropyl-1-{4-[3-(β-phenethylamino)propyloxy]benzenesulphonyl}indolizine hydrochloride], the activity at 1 µM was 16.8%, the activity at 0.1 µM was 31.8% and the activity at 0.01 µM was 73.9%.
`CC(C)c1cn2ccccc2c1S(=O)(=O)c1ccc(OCCCNCc2ccccc2)cc1` [Ex. 32, 2-Isopropyl-1-{4-[3-(benzylamino)propyloxy]benzenesulphonyl}indolizine hydrochloride] gave an activity at 1 µM of 3.6%, an activity at 0.1 µM of 19.4% and an activity at 0.01 µM of 65.9%.
Work on `CC(C)c1cn2ccccc2c1S(=O)(=O)c1ccc(OCCCN2CCN(c3ccccc3)CC2)cc1` [Ex. 33, 2-Isopropyl-1-{4-[3-(N-phenylpiperazino)propyloxy]benzenesulphonyl}indolizine] yielded an activity at 1 µM of 24.6%, an activity at 0.1 µM of 57.6% and an activity at 0.01 µM of 87%.
For `CC(C)c1cn2ccccc2c1S(=O)(=O)c1ccc(OCCCNCCc2ccccn2)cc1` [Ex. 34, 2-Isopropyl-1-{4-[3-(2-pyridylethylamino)propyloxy]benzenesulphonyl}indolizine dioxalate], the activity at 1 µM was 3.3%, the activity at 0.1 µM was 28.1% and the activity at 0.01 µM was 82.6%.
`CC(C)c1cn2ccccc2c1S(=O)(=O)c1ccc(OCCCN2CCC(c3ccccc3)CC2)cc1` [Ex. 35, 2-Isopropyl-1-{4-[3-(4-phenylpiperidino)propyloxy]-benzenesulphonyl}indolizine] showed an activity at 1 µM of 8.3%, an activity at 0.1 µM of 25% and an activity at 0.01 µM of 65.6%.
